In paper PMC5835321 (Cancer research, 2017):

Target: T1, PPARG (PPAR-gamma) (Homo sapiens, UniProt P37231)
T1 sequence (P37231 231-505 limits assumed): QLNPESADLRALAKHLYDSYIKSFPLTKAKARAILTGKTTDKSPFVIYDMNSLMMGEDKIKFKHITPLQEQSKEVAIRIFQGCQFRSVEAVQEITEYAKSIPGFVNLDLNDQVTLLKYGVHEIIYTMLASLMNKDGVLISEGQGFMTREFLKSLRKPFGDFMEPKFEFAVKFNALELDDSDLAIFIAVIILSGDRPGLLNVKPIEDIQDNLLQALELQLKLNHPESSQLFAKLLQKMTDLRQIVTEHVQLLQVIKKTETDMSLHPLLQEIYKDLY

CN(CCOc1ccc(C[C@H](Nc2ccccc2C(=O)c2ccccc2)C(=O)O)cc1)c1ccccn1 [GW1929]
TR-FRET coactivator recruitment and corepressor release; full agonist: Full agonists, such as rosiglitazone, tesaglitazar, GW1929, and pioglitazone, enhanced interaction between PPARG and MED1 coactivator peptide
